Strand notation (5' to 3'): a small letter for the sugar, then the base; units joined by * are phosphorothioate-linked, units joined directly phosphodiester-linked; [ ] holds rarer units or linkages, { } end groups; capitals alone tell only the bases. e = 2'-O-(2-methoxyethyl) (MOE); [5mC] = 5-methylcytosine; d = 2'-deoxy (DNA)
System: human IGF-IR mRNA
Experiment: Antisense inhibition of human IGF-IR mRNA levels by quantitative RT-PCR (Table 1)
Assay type: cell-based
Parameters: %INHIB (human IGF-IR mRNA levels): concentration or dose not given beside the values
Details: as shown in Table 1
Text: Treatment of A549 cell cultures with oligonucleotides targeting IGF-IR is as described in WO 2004/072284.
Quantitation of IGF-IR mRNA levels was accomplished by RT-PCR using the ABI PRISM (trademark) 7600, 7700, or 7900 Sequence Detection System (PE-Applied Biosystems, Foster City, Calif.) according to manufacturer's instructions. This is a closed-tube, non-gel-based, fluorescence detection system which allows high-throughput quantitation of PCR products in real-time. As opposed to standard PCR in which amplification products are quantitated after the PCR is completed, products in real-time quantitative PCR are quantitated as they accumulate. This is accomplished by including in the PCR reaction an oligonucleotide probe that anneals specifically between the forward and reverse PCR primers, and contains two fluorescent dyes. A reporter dye (e.g., FAM or JOE, obtained from either PE-Applied Biosystems, Foster City, Calif., Operon Technologies Inc., Alameda, Calif. or Integrated DNA Technologies Inc., Coralville, Iowa) is attached to the 5′-end of the probe and a quencher dye (e.g., TAMRA, obtained from either PE-Applied Biosystems, Foster City, Calif., Operon Technologies Inc., Alameda, Calif. or Integrated DNA Technologies Inc., Coralville, Iowa) is attached to the 3′-end of the probe. When the probe and dyes are intact, reporter dye emission is quenched by the proximity of the 3′ quencher dye. During amplification, annealing of the probe to the target sequence creates a substrate that can be cleaved by the 5′-exonuclease activity of Taq polymerase. […] With each cycle, additional reporter dye molecules are cleaved from their respective probes, and the fluorescence intensity is monitored at regular intervals by laser optics built into the ABI PRISM (trademark) Sequence Detection System. In each assay, a series of parallel reactions containing serial dilutions of mRNA from untreated control samples generates a standard curve that is used to quantitate the percent inhibition after antisense oligonucleotide treatment of test samples.
PCR reagents were obtained from Invitrogen Corporation, (Carlsbad, Calif.). RT-PCR reactions were carried out by adding 20 μL PCR cocktail (2.5×PCR buffer minus MgCl2, 6.6 mM MgCl2, 375 μM each of dATP, dCTP, […] and dGTP, 375 nM each of forward primer and reverse primer, 125 nM of probe, 4 Units RNAse inhibitor, 1.25 Units PLATINUM (registered trademark) Taq, 5 Units MuLV reverse transcriptase, and 2.5×ROX dye) to 96-well plates containing 30 μL total RNA solution (20-200 ng). The RT reaction was carried out by incubation for 30 minutes at 48° C. Following a 10 minute incubation at 95° C. to activate the PLATINUM (trademark) Taq, 40 cycles of a two-step PCR protocol were carried out: 95° C. for 15 seconds (denaturation) followed by 60° C. for 1.5 minutes (annealing/extension).
Gene target quantities obtained by RT-PCR are normalized using either the expression level of GAPDH, a gene whose expression is constant, or by quantifying total RNA using RiboGreen (trademark) (Molecular Probes, Inc. Eugene, Oreg.). GAPDH expression is quantified by RT-PCR, by being run simultaneously with the target, multiplexing, or separately. Total RNA is quantified using RiboGreen (trademark) RNA quantification reagent (Molecular Probes, Inc. Eugene, Oreg.). Methods of RNA quantification by RiboGreen (trademark) are taught in Jones et al., 1998.
Probes and primers to human IGF-IR were designed to hybridize to the IGF-IR nucleotide sequence, using published sequence information (GenBank accession number NM000875 (SEQ ID NO:76) or M69229 (SEQ ID NO:77) which is the 5′ untranslated of the IGF-IR gene sequence (see FIG. 6).
In accordance with the present invention, a series of antisense compounds were designed to target different regions of the human IGF-IR mRNA or the 5′ untranslated region, using published sequences set forth in NM000875 (SEQ ID NO:77) and M69229 (SEQ ID NO:76). […]

Substance	inhibition of IGF-IR expression (lead compounds)
323744 (antisense CGTGGTTGCAGCTGTGGATA; listed as DNA, chemistry not fully specified) [compound 323744]	demonstrated inhibition
175316 (antisense GCTCGCTGAAGGTCACAGCC; listed as DNA, chemistry not fully specified) [compound 175316]	demonstrated inhibition
175314 (antisense e[5mC]*eT*e[5mC]*eG*e[5mC]*dT*dG*dA*dA*dG*dG*dT*d[5mC]*dA*d[5mC]*eA*eG*e[5mC]*e[5mC]*eG) [compound 175314]	demonstrated inhibition
323747 (antisense CCAGCTTCTCAGCCTCGTGG; listed as DNA, chemistry not fully specified) [compound 323747]	demonstrated inhibition
175308 (antisense GTCGTCGGCCTCCATTTTCA; listed as DNA, chemistry not fully specified) [compound 175308]	demonstrated inhibition

Same assay, conditions: quantitative RT-PCR; averages from 3 experiments

Substance	%INHIB (human IGF-IR mRNA levels)
323750 (antisense TTTAAAAAGATGGAGTTTTC; listed as DNA, chemistry not fully specified) [compound 323750]	8%
323715 (antisense CCACAATGTAGTTATTGGAC; listed as DNA, chemistry not fully specified) [compound 323715]	65%
323718 (antisense ATGGTGGTCTTCTCACACAT; listed as DNA, chemistry not fully specified) [compound 323718]	69%
175319 (antisense GAAACAATACTCCGAAGGGC; listed as DNA, chemistry not fully specified) [compound 175319]	63%
323759 (antisense ATTTTGACTGTGAAATCTTC; listed as DNA, chemistry not fully specified) [compound 323759]	13%
323744 (antisense CGTGGTTGCAGCTGTGGATA; listed as DNA, chemistry not fully specified) [compound 323744]	85%
323764 (antisense GCTGCTTGCATATTGAAAAA; listed as DNA, chemistry not fully specified) [compound 323764]	77%
175327 (antisense ACAAGTCTCAAACTCAGTCT; listed as DNA, chemistry not fully specified) [compound 175327]	61%
175311 (antisense TAATGCTGGTAAACAAGAGC; listed as DNA, chemistry not fully specified) [compound 175311]	53%
323695 (antisense CCTTTTATTTGGGATGAAAT; listed as DNA, chemistry not fully specified) [compound 323695]	50%
175297 (antisense TGCTGGTAAACAAGAGCCCC; listed as DNA, chemistry not fully specified) [compound 175297]	61%
323711 (antisense CCCCCGAGTAATGTTCCTCA; listed as DNA, chemistry not fully specified) [compound 323711]	41%
323735 (antisense ATTTTGTCTTTGGAGCAGTA; listed as DNA, chemistry not fully specified) [compound 323735]	65%
323731 (antisense GTCCAGGGCTTCAGCCCATG; listed as DNA, chemistry not fully specified) [compound 323731]	74%
323761 (antisense TGTAGTAGAAGGAGACCTCC; listed as DNA, chemistry not fully specified) [compound 323761]	26%
323758 (antisense GAGACCGGAGATAACTTTTG; listed as DNA, chemistry not fully specified) [compound 323758]	29%
175322 (antisense TCCGGGTCACAGGCGAGGCC; listed as DNA, chemistry not fully specified) [compound 175322]	67%
175295 (antisense AACAAGAGCCCCAGCCTCGC; listed as DNA, chemistry not fully specified) [compound 175295]	76%

Substance	%INHIB (human IGF-IR mRNA levels)
323768 (antisense GGAGTTTAAAGGACAGTGCC; listed as DNA, chemistry not fully specified) [compound 323768]	59%
175310 (antisense GCGGCGAGCTCCTTCCCAAA; listed as DNA, chemistry not fully specified) [compound 175310]	76%
175316 (antisense GCTCGCTGAAGGTCACAGCC; listed as DNA, chemistry not fully specified) [compound 175316]	82%
175328 (antisense GGTAAACAAGAGCCCCAGCC; listed as DNA, chemistry not fully specified) [compound 175328]	64%
175294 (antisense GAAGTCCGGGTCACAGGCGA; listed as DNA, chemistry not fully specified) [compound 175294]	77%
323728 (antisense TCCCACAGTTGCTGCAAGTT; listed as DNA, chemistry not fully specified) [compound 323728]	73%
323748 (antisense GCAGCCCAGCTTCTCAGCCT; listed as DNA, chemistry not fully specified) [compound 323748]	77%
323740 (antisense CCACTCTGCTCTCAAAGAAA; listed as DNA, chemistry not fully specified) [compound 323740]	0%
323766 (antisense GCCCATGTCAGTTAAGGGTT; listed as DNA, chemistry not fully specified) [compound 323766]	69%
175314 (antisense e[5mC]*eT*e[5mC]*eG*e[5mC]*dT*dG*dA*dA*dG*dG*dT*d[5mC]*dA*d[5mC]*eA*eG*e[5mC]*e[5mC]*eG) [compound 175314]	87%
323747 (antisense CCAGCTTCTCAGCCTCGTGG; listed as DNA, chemistry not fully specified) [compound 323747]	85%
323727 (antisense GGAGTAATTCCCTTCTAGCT; listed as DNA, chemistry not fully specified) [compound 323727]	21%
175326 (antisense CCCAAATCCAGGACACACAC; listed as DNA, chemistry not fully specified) [compound 175326]	74%
323706 (antisense TGGTCATCTCGAAGATGACC; listed as DNA, chemistry not fully specified) [compound 323706]	5%
175308 (antisense GTCGTCGGCCTCCATTTTCA; listed as DNA, chemistry not fully specified) [compound 175308]	94%
175318 (antisense GAAACGCGGAGTCAAAATGA; listed as DNA, chemistry not fully specified) [compound 175318]	68%
323701 (antisense TTGGAGATGAGCAGGATGTG; listed as DNA, chemistry not fully specified) [compound 323701]	65%
323720 (antisense CTCATTGTTGATGGTGGTCT; listed as DNA, chemistry not fully specified) [compound 323720]	81%
